Laboratory results published in PMC8596998, “The Introduction of a Cysteine Residue Modulates The Mechanical Properties of Aromatic‐Based Solid Aggregates and Self‐Supporting Hydrogels” (Chemistry (Weinheim an Der Bergstrasse, Germany), 2021).
≈ marks a conversion by molar mass, not a printed value. Square brackets hold non-standard residues; d marks the D form. Ends that are not written are not given here. Peptide text beside a SMILES is read from it. AEEA = NCCOCCOCC(=O)O

Experiments:
[1] = Water solubility of peptides; assay type: physicochemical
Description: Both the peptide derivatives were synthetized using solid phase peptide synthesis protocols (SPPS) with Fmoc/OtBu strategy. After their purification by RP‐HPLC chromatography, peptides were characterized by ESI mass spectrometry (see Figure S8). The logP values, estimated using the ACD Lab ChemSketch software, predict the intrinsic water solubility of peptides. […] A diametric behaviour was noted using the organic solvent 1,1,1,3,3,3‐hexafluoro‐isopropan‐2‐ol (HFIP).[[11a], [12]] Indeed, in HFIP the peptide FYFCFYF is highly soluble (up to 200 mg/mL), whereas PEG8‐FYFCFYF is moderately soluble (up to 5 mg/mL). According to their different solubility, peptide solutions were prepared using two approaches: PEG8‐FYFCFYF solutions were prepared by a direct dissolution of the lyophilized powder in water, whereas FYFCFYF ones were obtained by dilution in water of a HFIP stock solution (100 mg/mL). […] Peptide concentration was then analytically quantified using UV‐Vis spectroscopy. Preliminarily, we evaluated the capability of both the peptides to aggregate in solution (at 2.0 mg/mL) using the Dynamic Light Scattering (DLS) technique. […] The formation of nanoarchitectures was further investigated by fluorescence spectroscopy. Despite the presence of four Phe residues in the peptides, their self‐assembling propensity cannot be evaluated by simply considering the Phe excimer formation. […]

[2] = Gelification, inverted test tube (CGC, gelation time, shelf stability, syneresis); assay type: physicochemical
Description: Interconnected fibers network can generate self‐supporting hydrogels as a consequence of additional physical cross‐linking phenomena or chemical modifications. In the specific case of peptide‐based HGs, these materials are formed by further entanglement of supramolecular fibrillary structures, which can be induced by increasing the total sample concentration, and as a consequence, the number of fibers and their mutual contacts.[21] During the preparation of FYFCFYF solutions, we observed a viscosity degree that increases proportionally to the peptide concentration. […] As reported in Figure S12, the critical gelation concentration (CGC) for FYFCFYF can be identified in the range 0.5 wt%<CGC<1.0 wt%. […] However, the characterization of others analogues of (FY)3 and PEG8‐(FY)3 [eg. (F‐Dopa)3 and (Nal‐Dopa)3 and their PEGylated versions PEG8‐(F‐Dopa)3 and PEG8‐(Nal‐Dopa)3] highlighted a diametrically opposed behavior respect to (FY)3.[10] All these evidences point out the importance of the hydrophilic/hydrophobic balance in the peptide sequence in the gelification process. Moreover, it is possible that the Cys side chain plays a role in the confinement and retention of water molecules in the gel. The stability of the FYFCFYF hydrogel (macroscopically evaluated in terms of homogeneity, opacity and reproducibility) and its capability to hold water (as difference between the weight of the matrix before and after an incubation in water overnight at room temperature) were evaluated by the swelling value q (See Equation (1)).[22] […] The shelf stability was also evaluated via inverted test tube. […]
The formation of an additional chemical network affects also on the CGC and swelling features. […] The efficiency of oxidation procedure was evaluated using the well‐assessed Ellman's test.[24] Ellman's reagent (5,5’‐dithio‐bis‐(2‐nitrobenzoic acid)) also known as DTNB, is a chromogenic compound used to quantify free sulfhydryl groups in solution. […] Thus, free thiol concentration can be indirectly determined by TNB UV‐Vis absorption at 412 nm. […]

Molecule	solubility [1] [µg/mL]	shelf stability ([2]; hydrogel 1.0 wt%) [days]	shelf stability ([2]; hydrogel 1.5 wt%)	shelf stability ([2]; hydrogel 2.0 wt%)
NCCOCCOCC(=O)NCCOCCOCC(=O)NCCOCCOCC(=O)NCCOCCOCC(=O)N[C@@H](Cc1ccccc1)C(=O)N[C@@H](Cc1ccc(O)cc1)C(=O)N[C@@H](Cc1ccccc1)C(=O)N[C@@H](CS)C(=O)N[C@@H](Cc1ccccc1)C(=O)N[C@@H](Cc1ccc(O)cc1)C(=O)N[C@@H](Cc1ccccc1)C(N)=O [PEG8‐FYFCFYF] (H-[AEEA][AEEA][AEEA][AEEA]FYFCFYF-NH2)	~10000 (≈ 6.19 mM)			
FYFCFYF-NH2 [FYFCFYF]	240	20	up to 40 days	up to 65 days
